{"source": "PubChem BioAssay AID1963978", "about": "(Molecular Pharmacology Branch, DTP, NCI, 2024);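 also: spheroids exposed to agents for seven days before the viability read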", "system": "616215-338-R-J1-PDC spheroids with HUVEC/MSC, viability", "test": "Anticancer human tumor 616215-338-R-J1-PDC patient-derived colon adenocarcinoma cell line growth inhibition [PI3K]", "settings": "for viability, T/C: stronger effect = lower value", "procedure,_shortened": "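Tumor cells grown as multi-cell spheroids with HUVEC endothelial cells and MSC fibroblast-like stroma were treated with targeted agents combined with inavolisib, alpelisib, duvelisib or copanlisib. Doses fell in half-log steps from near clinical Cmax, else from 10 microM. Viability was measured.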", "key": {"[1]": {"settings": "curve of first compound, second compound 0.0316 µM"}, "[2]": {"settings": "curve of first compound, second compound 0.1 µM"}, "[3]": {"settings": "curve of first compound, second compound 0.316 µM"}, "[4]": {"settings": "curve of first compound, second compound 1 µM"}, "[5]": {"settings": "second compound 0.0316 µM, first compound 0.0316 µM"}, "[6]": {"settings": "second compound 0.0316 µM, first compound 0.1 µM"}, "[7]": {"settings": "second compound 0.0316 µM, first compound 0.316 µM"}, "[8]": {"settings": "second compound 0.0316 µM, first compound 1 µM"}, "[9]": {"settings": "second compound 0.0316 µM, first compound 3.16 µM"}, "[10]": {"settings": "second compound 0.0316 µM, first compound 10 µM"}, "[11]": {"settings": "second compound 0.1 µM, first compound 0.0316 µM"}, "[12]": {"settings": "second compound 0.1 µM, first compound 0.1 µM"}, "[13]": {"settings": "second compound 0.1 µM, first compound 0.316 µM"}, "[14]": {"settings": "second compound 0.1 µM, first compound 1 µM"}, "[15]": {"settings": "second compound 0.1 µM, first compound 3.16 µM"}, "[16]": {"settings": "second compound 0.1 µM, first compound 10 µM"}, "[17]": {"settings": "second compound 0.316 µM, first compound 0.0316 µM"}, "[18]": {"settings": "second compound 0.316 µM, first compound 0.1 µM"}, "[19]": {"settings": "second compound 0.316 µM, first compound 0.316 µM"}, "[20]": {"settings": "second compound 0.316 µM, first compound 1 µM"}, "[21]": {"settings": "second compound 0.316 µM, first compound 3.16 µM"}, "[22]": {"settings": "second compound 0.316 µM, first compound 10 µM"}, "[23]": {"settings": "second compound 1 µM, first compound 0.0316 µM"}, "[24]": {"settings": "second compound 1 µM, first compound 0.1 µM"}, "[25]": {"settings": "second compound 1 µM, first compound 0.316 µM"}, "[26]": {"settings": "second compound 1 µM, first compound 1 µM"}, "[27]": {"settings": "second compound 1 µM, first compound 3.16 µM"}, "[28]": {"settings": "second compound 1 µM, first compound 10 µM"}}}
{"smiles": "Cn1nccc1Nc1nccc(-c2ccn(C(CO)c3ccc(Cl)c(F)c3)c(=O)c2)n1", "note": "(stereo unspecified) + CC(Nc1ncnc2nc[nH]c12)c1cc2cccc(Cl)c2c(=O)n1-c1ccccc1", "values": [{"measurement": "IC50", "setting": "[1]", "value": 5.16, "unit": "µM"}, {"measurement": "IC50", "setting": "[2]", "value": 5.57, "unit": "µM"}, {"measurement": "IC50", "setting": "[3]", "value": 2.94, "unit": "µM"}, {"measurement": "IC50", "setting": "[4]", "value": 5.74, "unit": "µM"}, {"measurement": "IC50", "setting": "curve of first compound, second compound 3.16 µM", "value": 2.62, "unit": "µM"}, {"measurement": "IC50", "setting": "curve of first compound, second compound 10 µM", "value": 1.53, "unit": "µM"}, {"measurement": "viability, T/C", "setting": "[5]", "value": 95.6, "unit": "%"}, {"measurement": "viability, T/C", "setting": "[6]", "value": 89.2, "unit": "%"}, {"measurement": "viability, T/C", "setting": "[7]", "value": 89.7, "unit": "%"}, {"measurement": "viability, T/C", "setting": "[8]", "value": 68.1, "unit": "%"}, {"measurement": "viability, T/C", "setting": "[9]", "value": 57, "unit": "%"}, {"measurement": "viability, T/C", "setting": "[10]", "value": 42.7, "unit": "%"}, {"measurement": "viability, T/C", "setting": "[11]", "value": 106, "unit": "%"}, {"measurement": "viability, T/C", "setting": "[12]", "value": 102, "unit": "%"}, {"measurement": "viability, T/C", "setting": "[13]", "value": 84.3, "unit": "%"}, {"measurement": "viability, T/C", "setting": "[14]", "value": 77.3, "unit": "%"}, {"measurement": "viability, T/C", "setting": "[15]", "value": 65.4, "unit": "%"}, {"measurement": "viability, T/C", "setting": "[16]", "value": 36.5, "unit": "%"}, {"measurement": "viability, T/C", "setting": "[17]", "value": 101, "unit": "%"}, {"measurement": "viability, T/C", "setting": "[18]", "value": 102, "unit": "%"}, {"measurement": "viability, T/C", "setting": "[19]", "value": 80.6, "unit": "%"}, {"measurement": "viability, T/C", "setting": "[20]", "value": 67.1, "unit": "%"}, {"measurement": "viability, T/C", "setting": "[21]", "value": 50.8, "unit": "%"}, {"measurement": "viability, T/C", "setting": "[22]", "value": 29.9, "unit": "%"}, {"measurement": "viability, T/C", "setting": "[23]", "value": 109, "unit": "%"}, {"measurement": "viability, T/C", "setting": "[24]", "value": 98.6, "unit": "%"}, {"measurement": "viability, T/C", "setting": "[25]", "value": 71.8, "unit": "%"}, {"measurement": "viability, T/C", "setting": "[26]", "value": 72.9, "unit": "%"}, {"measurement": "viability, T/C", "setting": "[27]", "value": 61.2, "unit": "%"}, {"measurement": "viability, T/C", "setting": "[28]", "value": 40.6, "unit": "%"}, {"measurement": "viability, T/C", "setting": "second compound 3.16 µM, first compound 0.0316 µM", "value": 99.1, "unit": "%"}, {"measurement": "viability, T/C", "setting": "second compound 3.16 µM, first compound 0.1 µM", "value": 105, "unit": "%"}, {"measurement": "viability, T/C", "setting": "second compound 3.16 µM, first compound 0.316 µM", "value": 93.4, "unit": "%"}, {"measurement": "viability, T/C", "setting": "second compound 3.16 µM, first compound 1 µM", "value": 71.3, "unit": "%"}, {"measurement": "viability, T/C", "setting": "second compound 3.16 µM, first compound 3.16 µM", "value": 47.1, "unit": "%"}, {"measurement": "viability, T/C", "setting": "second compound 3.16 µM, first compound 10 µM", "value": 28, "unit": "%"}, {"measurement": "viability, T/C", "setting": "second compound 10 µM, first compound 0.0316 µM", "value": 111, "unit": "%"}, {"measurement": "viability, T/C", "setting": "second compound 10 µM, first compound 0.1 µM", "value": 99, "unit": "%"}, {"measurement": "viability, T/C", "setting": "second compound 10 µM, first compound 0.316 µM", "value": 72.6, "unit": "%"}, {"measurement": "viability, T/C", "setting": "second compound 10 µM, first compound 1 µM", "value": 57.8, "unit": "%"}, {"measurement": "viability, T/C", "setting": "second compound 10 µM, first compound 3.16 µM", "value": 39.7, "unit": "%"}, {"measurement": "viability, T/C", "setting": "second compound 10 µM, first compound 10 µM", "value": 12.7, "unit": "%"}]}
{"smiles": "Cn1ncnc1[C@H]1c2n[nH]c(=O)c3cc(F)cc(c23)N[C@@H]1c1ccc(F)cc1", "values": [{"measurement": "viability, T/C", "setting": "compound 0.000316 µM", "value": "95% [middle of 4 runs]"}, {"measurement": "viability, T/C", "setting": "compound 0.001 µM", "value": "97.2% [middle of 4 runs]"}, {"measurement": "viability, T/C", "setting": "compound 0.00316 µM", "value": "100% [middle of 4 runs]"}, {"measurement": "viability, T/C", "setting": "compound 0.01 µM", "value": "102% [middle of 4 runs]"}, {"measurement": "viability, T/C", "setting": "compound 0.0316 µM", "value": "102% [middle of 4 runs]"}, {"measurement": "viability, T/C", "setting": "compound 0.1 µM", "value": "94.5% [middle of 4 runs]"}, {"measurement": "IC50", "setting": "curve of compound", "value": "> 0.1", "unit": "µM"}]}
{"smiles": "CC1(C)CCC(CN2CCN(c3ccc(C(=O)NS(=O)(=O)c4ccc(NCC5CCOCC5)c([N+](=O)[O-])c4)c(Oc4cnc5[nH]ccc5c4)c3)CC2)=C(c2ccc(Cl)cc2)C1", "note": "+ COc1c(OCCCN2CCOCC2)ccc2c3n(c(=NC(=O)c4cnc(N)nc4)nc12)CCN3", "values": [{"measurement": "IC50", "setting": "curve of first compound, second compound 0.00316 µM", "value": "> 10", "unit": "µM"}, {"measurement": "IC50", "setting": "curve of first compound, second compound 0.01 µM", "value": "> 10", "unit": "µM"}, {"measurement": "IC50", "setting": "[1]", "value": "> 10", "unit": "µM"}, {"measurement": "IC50", "setting": "[2]", "value": "> 10", "unit": "µM"}, {"measurement": "IC50", "setting": "[3]", "value": "< 0.0316", "unit": "µM"}, {"measurement": "IC50", "setting": "[4]", "value": "< 0.0316", "unit": "µM"}, {"measurement": "viability, T/C", "setting": "second compound 0.00316 µM, first compound 0.0316 µM", "value": 94, "unit": "%"}, {"measurement": "viability, T/C", "setting": "second compound 0.00316 µM, first compound 0.1 µM", "value": 103, "unit": "%"}, {"measurement": "viability, T/C", "setting": "second compound 0.00316 µM, first compound 0.316 µM", "value": 109, "unit": "%"}, {"measurement": "viability, T/C", "setting": "second compound 0.00316 µM, first compound 1 µM", "value": 99.7, "unit": "%"}, {"measurement": "viability, T/C", "setting": "second compound 0.00316 µM, first compound 3.16 µM", "value": 88.7, "unit": "%"}, {"measurement": "viability, T/C", "setting": "second compound 0.00316 µM, first compound 10 µM", "value": 95.2, "unit": "%"}, {"measurement": "viability, T/C", "setting": "second compound 0.01 µM, first compound 0.0316 µM", "value": 84.7, "unit": "%"}, {"measurement": "viability, T/C", "setting": "second compound 0.01 µM, first compound 0.1 µM", "value": 95.1, "unit": "%"}, {"measurement": "viability, T/C", "setting": "second compound 0.01 µM, first compound 0.316 µM", "value": 98.2, "unit": "%"}, {"measurement": "viability, T/C", "setting": "second compound 0.01 µM, first compound 1 µM", "value": 98.7, "unit": "%"}, {"measurement": "viability, T/C", "setting": "second compound 0.01 µM, first compound 3.16 µM", "value": 84.2, "unit": "%"}, {"measurement": "viability, T/C", "setting": "second compound 0.01 µM, first compound 10 µM", "value": 96.8, "unit": "%"}, {"measurement": "viability, T/C", "setting": "[5]", "value": 96.8, "unit": "%"}, {"measurement": "viability, T/C", "setting": "[6]", "value": 99.4, "unit": "%"}, {"measurement": "viability, T/C", "setting": "[7]", "value": 100, "unit": "%"}, {"measurement": "viability, T/C", "setting": "[8]", "value": 102, "unit": "%"}, {"measurement": "viability, T/C", "setting": "[9]", "value": 93.1, "unit": "%"}, {"measurement": "viability, T/C", "setting": "[10]", "value": 109, "unit": "%"}, {"measurement": "viability, T/C", "setting": "[11]", "value": 96.1, "unit": "%"}, {"measurement": "viability, T/C", "setting": "[12]", "value": 93.6, "unit": "%"}, {"measurement": "viability, T/C", "setting": "[13]", "value": 107, "unit": "%"}, {"measurement": "viability, T/C", "setting": "[14]", "value": 87.8, "unit": "%"}, {"measurement": "viability, T/C", "setting": "[15]", "value": 83, "unit": "%"}, {"measurement": "viability, T/C", "setting": "[16]", "value": 95.2, "unit": "%"}, {"measurement": "viability, T/C", "setting": "[17]", "value": 47.4, "unit": "%"}, {"measurement": "viability, T/C", "setting": "[18]", "value": 41.2, "unit": "%"}, {"measurement": "viability, T/C", "setting": "[19]", "value": 45.5, "unit": "%"}, {"measurement": "viability, T/C", "setting": "[20]", "value": 42.5, "unit": "%"}, {"measurement": "viability, T/C", "setting": "[21]", "value": 27.6, "unit": "%"}, {"measurement": "viability, T/C", "setting": "[22]", "value": 33.2, "unit": "%"}, {"measurement": "viability, T/C", "setting": "[23]", "value": 24.3, "unit": "%"}, {"measurement": "viability, T/C", "setting": "[24]", "value": 24.4, "unit": "%"}, {"measurement": "viability, T/C", "setting": "[25]", "value": 25.5, "unit": "%"}, {"measurement": "viability, T/C", "setting": "[26]", "value": 21, "unit": "%"}, {"measurement": "viability, T/C", "setting": "[27]", "value": 13.2, "unit": "%"}, {"measurement": "viability, T/C", "setting": "[28]", "value": 30, "unit": "%"}]}
